Values of other authors in patent US12090168B2, “Glucose glycans for treating urea cycle disorders” (DSM Nutritional Products, LLC, priority 2017, dated 2024).

Settings: administered in combination with lactulose

Structure (SMILES): CO[C@H]1/C=C/O[C@@]2(C)Oc3c(C)c(O)c4c(O)c(c5c(nc6cc(C)ccn65)c4c3C2=O)NC(=O)/C(C)=C\C=C\[C@H](C)[C@H](O)[C@@H](C)[C@@H](O)[C@@H](C)[C@H](OC(C)=O)[C@@H]1C [rifaximin]
- reduction of episodes of OHE: approximately 50%
